{"source": "patent US20040180855A1", "about": "“Methods of treating thrombosis with reduced risk of increased bleeding times” (priority 2003, published 2004)", "key": {"human factor Xa": {"biological_target": "T1, human factor Xa (Homo sapiens, UniProt P00742)", "T1 construct": "Factor IXa then converts Factor X to Factor Xa; purchased Kabi Vitrum", "T1 sequence (P00742 235-488 limits assumed)": "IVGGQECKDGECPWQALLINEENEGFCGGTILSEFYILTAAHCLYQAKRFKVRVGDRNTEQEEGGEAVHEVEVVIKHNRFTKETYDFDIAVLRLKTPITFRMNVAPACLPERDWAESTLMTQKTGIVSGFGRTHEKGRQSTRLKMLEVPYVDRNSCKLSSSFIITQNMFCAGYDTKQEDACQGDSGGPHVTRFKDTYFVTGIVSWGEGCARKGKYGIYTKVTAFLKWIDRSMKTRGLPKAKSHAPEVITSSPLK", "T1 sequence (P00742 41-179 partner limits assumed)": "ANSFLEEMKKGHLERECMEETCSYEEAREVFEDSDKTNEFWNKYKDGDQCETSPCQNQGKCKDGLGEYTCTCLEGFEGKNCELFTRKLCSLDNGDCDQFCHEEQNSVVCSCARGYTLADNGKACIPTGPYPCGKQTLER", "assay": "Selectivity assay factor Xa", "format": "biochemical", "settings": "Table 3; read-out: IC50 (μM) FXa"}, "[1]": {"test_system": "FeCl2-VT (vena cava thrombosis)", "assay": "Venous thrombosis, vessel injury model (FeCl2-VT)", "format": "in vivo", "settings": "rat FeCl2-VT", "procedure": "General Surgical Preparation Male Sprague Dawley rats (310 to 390 g) were anesthetized with Na-pentobarbital (50 mg/kg i.p.). The left jugular vein was cannulated with PE-50 tubing for drug administration, and the trachea was intubated with PE-205 tubing to ensure airway patency. In some animals, a carotid artery was cannulated with PE-50 tubing to obtain blood samples, and a procedure was followed as described in Schumacher et al., “Comparison of Thrombin Active-Site and Exosite Inhibitors and Heparin in Experimental Models of Arterial and Venous Thrombosis and Bleeding,” J. Pharmacol. Exp. Therap., Vol. 267 (1993), at pp. 1237-42; Schumacher et al., Effects of Antithrombotic Drugs in a Rat Model of Aspirin-Insensitive Arterial Thrombosis, Thromb Haemostasis, Vol. 69 (1993), at pp. 509-514; or Schumacher et al., Effect of a Novel Thrombin Active-Site Inhibitor on Arterial and Venous Thrombosis, Eur J Pharmacol., Vol. 259 (1994), at pp. 165-171, each of which is incorporated herein by reference. In each procedure, a small organic compound effective for inhibiting Factor XIa, as described herein, or saline vehicle, was administered i.v. as a loading infusion over 5 min plus a sustaining infusion that was maintained until the end of the procedure. Compound doses are indicated for each procedure in mg/kg plus mg/kg/hr. The volume of test article was 1 mL/kg plus 1 mL/kg/hr, except the 24 mg/kg+24 mg/kg/hr dose of compound where volume was doubled. […] Statistical Analysis In the venous and arterial thrombosis procedures, treatment effects on thrombus weight, baseline blood flow, and average blood flow during thrombosis were determined by analysis of variance with Dunnett's test for comparison to the vehicle group. […] Treatment effects on bleeding times were determined by analysis of variance with Dunnett's test for comparison to the vehicle group. Both post-treatment and pre-treatment bleeding times and the relative bleeding time increases in sec were analyzed. […]"}, "[2]": {"test_system": "FeCl2-induced carotid artery thrombosis", "assay": "Arterial thrombosis model (FeCl2 carotid artery)", "format": "in vivo, rat", "settings": "i.v. 12 mg/kg plus 12 mg/kg/hr", "procedure": "General Surgical Preparation Male Sprague Dawley rats (310 to 390 g) were anesthetized with Na-pentobarbital (50 mg/kg i.p.). The left jugular vein was cannulated with PE-50 tubing for drug administration, and the trachea was intubated with PE-205 tubing to ensure airway patency. In some animals, a carotid artery was cannulated with PE-50 tubing to obtain blood samples, and a procedure was followed as described in Schumacher et al., “Comparison of Thrombin Active-Site and Exosite Inhibitors and Heparin in Experimental Models of Arterial and Venous Thrombosis and Bleeding,” J. Pharmacol. Exp. Therap., Vol. 267 (1993), at pp. 1237-42; Schumacher et al., Effects of Antithrombotic Drugs in a Rat Model of Aspirin-Insensitive Arterial Thrombosis, Thromb Haemostasis, Vol. 69 (1993), at pp. 509-514; or Schumacher et al., Effect of a Novel Thrombin Active-Site Inhibitor on Arterial and Venous Thrombosis, Eur J Pharmacol., Vol. 259 (1994), at pp. 165-171, each of which is incorporated herein by reference. […]\nArterial Thrombosis The left carotid artery was exposed and a piece of parafilm “M” (American National Can, Greenwich, Conn.) was inserted under the vessel. […] Carotid blood flow (CBF) was monitored continuously on a TA3800 physiologic recorder (Gould, Cleveland, Ohio). Total CBF was determined and normalized as percent of baseline (0 min) flow over 60 min to provide a measure of average blood flow during thrombus formation.\nStatistical Analysis In the venous and arterial thrombosis procedures, treatment effects on thrombus weight, baseline blood flow, and average blood flow during thrombosis were determined by analysis of variance with Dunnett's test for comparison to the vehicle group. […] Treatment effects on bleeding times were determined by analysis of variance with Dunnett's test for comparison to the vehicle group. Both post-treatment and pre-treatment bleeding times and the relative bleeding time increases in sec were analyzed. […]"}}, "data": [{"smiles": "CC(C)(C)NC(=O)N1CCN(C(=O)N2C(=O)[C@H](CCCNC(=N)N)[C@H]2C(=O)O)CC1", "note": "[Example 4]", "values": [{"measurement": "IC50", "setting": "human factor Xa", "result": "> 33", "unit": "µM"}, {"measurement": "inhibition (reduction in thrombus weight)", "setting": "[1]; i.v. 0.2+0.2 mg/kg+mg/kg/hr, FIG. 3", "result": "about 38%"}, {"measurement": "dose dependence of thrombus weight reduction", "setting": "[1]; i.v. 0.2+0.2 to 6+6 mg/kg+mg/kg/hr", "result": "Dose-dependent reductions"}, {"measurement": "reduction in thrombus weight", "setting": "[1]; i.v. 6+6 mg/kg+mg/kg/hr, FIG. 3", "result": "approximately 90%"}, {"measurement": "decrease in thrombus weight", "setting": "[2]; rat carotid artery, FIG. 2", "result": 73, "unit": "%"}, {"measurement": "average blood flow during thrombosis and vessel patency", "setting": "[2]; rat", "result": "improvement"}, {"measurement": "effect on FeCl2-induced carotid artery thrombosis (carotid blood flow, FIG. 1)", "setting": "[2]; rat", "result": "prevented"}]}]}
